The series in a line: Accelerated aging stability study at 40° C. for eleven days (impurities by HPLC, USP35). Conditions: in the liquid pharmaceutical composition throughout 11 days of accelerated aging at 40° C. The class given is physicochemical. How it is done: A liquid pharmaceutical composition as described above, comprising ˜10 mg/mL docetaxel was diluted and subjected to accelerated aging at 40° C. for eleven days. The levels of impurities as specified by USP35 (United States Pharmacopeia 35) for taxane compositions were analyzed by HPLC at regular intervals. Stability was tested at 6 hours on day 0. Impurity levels in the liquid pharmaceutical compositions were compared to the allowable level according to the USP35 standard.

Molecules are shown by their SMILES.

Compound `CC(=O)O[C@@]12CO[C@@H]1C[C@H](O)[C@@]1(C)C(=O)[C@H](O)C3=C(C)[C@@H](OC(=O)[C@H](O)[C@@H](NC(=O)OC(C)(C)C)c4ccccc4)C[C@@](O)([C@@H](OC(=O)c4ccccc4)[C@H]21)C3(C)C` [docetaxel] displayed a Concentration of docetaxel of 9.52 mg/mL.

The values are drawn from patent US10398785B2, “Pharmaceutical compositions containing taxane-cyclodextrin complexes, method of making and methods of use” (MERIDIAN LAB, priority 2015, dated 2019).
